From patent US20100267561A1, “HERBICIDAL PYRIDAZINONE DERIVATIVES” (priority 2007, published 2010)
Read-outs that look alike come from different tables or passages of the source.

Assays:
Assay type in all cases: in vivo
[1] = system: wheat (Triticum aestivum); assay: Test A pre-/postemergence plant response; conditions: Triticum aestivum, 240 h, read-out: Plant response rating, Wheat; for plant injury at 125 g/ha: 125 g ai/ha; for plant injury at 500 g/ha: 500 g ai/ha
Summary of the method: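 Scores reflect visual plant injury relative to untreated controls on a 0–100 scale, recorded approximately 10 days after simultaneous preemergence soil spraying and postemergence spraying of one- to two-leaf seedlings grown in loam–sand.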

[2] = system: Italian ryegrass (Lolium multiflorum); assay: Test B pre-/postemergence plant response; conditions: for Ryegrass, Italian plant response rating: 8 g ai/ha; for pest or weed control at 16 g/ha / pest or weed control at 31 g/ha / pest or weed control at 62 g/ha: Lolium multiflorum, read-out: Plant response rating, Ryegrass, Italian; for pest or weed control at 16 g/ha: 16 g ai/ha; for pest or weed control at 31 g/ha: 31 g ai/ha; for pest or weed control at 62 g/ha: 62 g ai/ha
Summary of the method: (§1)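 Seeds were sown and sprayed preemergence, while plants at 2 to 18 cm (1- to 4-leaf stage) got postemergence sprays. Compounds were formulated in a non-phytotoxic solvent mixture with surfactant. After 13 to 15 days in a greenhouse, injury was rated visually against untreated controls, 0 (no effect) to 100 (complete control).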

[3] = system: Russian thistle (Salsola iberica); assay: Test B pre-/postemergence plant response; conditions: Preemergence
Summary of the method: as §1

[4] = system: cocklebur (Xanthium strumarium); assay: Test B pre-/postemergence plant response; conditions: for Cocklebur plant response rating: 8 g ai/ha; for pest or weed control at 16 g/ha / pest or weed control at 31 g/ha / pest or weed control at 62 g/ha: Xanthium strumarium, read-out: Plant response rating, Cocklebur; for pest or weed control at 16 g/ha: 16 g ai/ha; for pest or weed control at 31 g/ha: 31 g ai/ha; for pest or weed control at 62 g/ha: 62 g ai/ha
Summary of the method: as §1

[5] = system: common ragweed (Ambrosia elation); assay: Test B pre-/postemergence plant response; conditions: for Ragweed plant response rating: 8 g ai/ha; for pest or weed control at 16 g/ha / pest or weed control at 31 g/ha / pest or weed control at 62 g/ha: Ambrosia, read-out: Plant response rating, Ragweed; for pest or weed control at 16 g/ha: 16 g ai/ha; for pest or weed control at 31 g/ha: 31 g ai/ha; for pest or weed control at 62 g/ha: 62 g ai/ha
Summary of the method: as §1

[6] = system: eastern black (E.B.) nightshade (Solanum ptycanthum); assay: Test B pre-/postemergence plant response; conditions: Preemergence
Summary of the method: as §1

[7] = system: goosegrass (Eleusine indica); assay: Test B pre-/postemergence plant response; conditions: for Goosegrass plant response rating: 8 g ai/ha; for pest or weed control at 16 g/ha / pest or weed control at 31 g/ha / pest or weed control at 62 g/ha: Eleusine indica, read-out: Plant response rating, Goosegrass; for pest or weed control at 16 g/ha: 16 g ai/ha; for pest or weed control at 31 g/ha: 31 g ai/ha; for pest or weed control at 62 g/ha: 62 g ai/ha
Summary of the method: as §1

kochia (Kochia scoparia) = assay: Test B pre-/postemergence plant response; conditions: for Kochia plant response rating: 8 g ai/ha; for Plant response rating, Kochia: Postemergence
Summary of the method: as §1

[8] = system: pigweed (Amaranthus retroflexus); assay: Test B pre-/postemergence plant response; conditions: for Pigweed plant response rating: 8 g ai/ha; for pest or weed control at 16 g/ha / pest or weed control at 31 g/ha / pest or weed control at 62 g/ha: Amaranthus retroflexus, read-out: Plant response rating, Pigweed; for pest or weed control at 16 g/ha: 16 g ai/ha; for pest or weed control at 31 g/ha: 31 g ai/ha; for pest or weed control at 62 g/ha: 62 g ai/ha
Summary of the method: as §1

soybean (Glycine max) = assay: Test B pre-/postemergence plant response; conditions: for Soybean plant response rating: 8 g ai/ha; for plant injury at 16 g/ha: 16 g ai/ha; for plant injury at 62 g/ha: 62 g ai/ha
Summary of the method: as §1

[9] = system: woolly cupgrass (Eriochloa villosa); assay: Test B pre-/postemergence plant response; conditions: for Cupgrass, Woolly plant response rating: 8 g ai/ha; for pest or weed control at 16 g/ha / pest or weed control at 31 g/ha / pest or weed control at 62 g/ha: Eriochloa villosa, read-out: Plant response rating, Cupgrass, Woolly; for pest or weed control at 16 g/ha: 16 g ai/ha; for pest or weed control at 31 g/ha: 31 g ai/ha; for pest or weed control at 62 g/ha: 62 g ai/ha
Summary of the method: as §1

[10] = system: yellow nutsedge (Cyperus esculentus); assay: Test B pre-/postemergence plant response; conditions: for Nutsedge, Yellow plant response rating: 8 g ai/ha; for pest or weed control at 16 g/ha / pest or weed control at 31 g/ha / pest or weed control at 62 g/ha: Cyperus, read-out: Plant response rating, Nutsedge, Yellow; for pest or weed control at 16 g/ha: 16 g ai/ha; for pest or weed control at 31 g/ha: 31 g ai/ha; for pest or weed control at 62 g/ha: 62 g ai/ha
Summary of the method: as §1

[11] = post-emergence, Postemergence, 0 to 100 scale, 0 no effect, 100 complete control
[12] = pre-emergence, Preemergence, 0 to 100 scale (0 no effect, 100 complete control)
[13] = post-emergence, Postemergence, scale 0 to 100
[14] = post-emergence, Postemergence, scale 0 to 100, 0 no effect, 100 complete control
[15] = pre-emergence, Preemergence, scale 0 to 100 (0 no effect, 100 complete control)
[16] = pre-emergence, Preemergence, 0 to 100 scale, 0 no effect, 100 complete control
[17] = pre-emergence, Preemergence, scale 0 to 100

CCc1c(C)c(-c2ccc(Cl)cc2)nn1-c1c(O)cnn(C)c1=O [Compound 26, 4-[3-(4-chlorophenyl)-5-ethyl-4-methyl-1H-pyrazol-1-yl]-5-hydroxy-2-methyl-3(2H)-pyridazinone]
plant injury at 125 g/ha [1, 11]: 0% | plant injury at 500 g/ha [1, 11]: 60% | plant injury at 125 g/ha [1, 12]: 20% | plant injury at 500 g/ha [1, 12]: 70% | Ryegrass, Italian plant response rating ([2]; postemergence, 0-100 scale): 70 | pest or weed control at 16 g/ha [2, 13]: 85% | pest or weed control at 31 g/ha [2, 14]: 85% | pest or weed control at 62 g/ha [2, 14]: 100% | pest or weed control at 16 g/ha [2, 15]: 90% | pest or weed control at 31 g/ha [2, 16]: 100% | pest or weed control at 62 g/ha [2, 17]: 100% | Ryegrass, Italian plant response rating ([2]; Preemergence, scale 0 to 100): 50 | Plant response rating, Russian Thistle ([3]; 16 g ai/ha, scale 0 to 100 (0 no effect, 100 complete control)): 0 | Plant response rating, Russian Thistle ([3]; 31 g ai/ha, 0 to 100 scale, 0 no effect, 100 complete control): 0 | Plant response rating, Russian Thistle ([3]; 62 g ai/ha, scale 0 to 100): 0 | Russian Thistle plant response rating ([3]; 8 g ai/ha, scale 0 to 100): 0 | Cocklebur plant response rating ([4]; postemergence, 0-100 scale): 0 | Cocklebur plant response rating ([4]; Preemergence, scale 0 to 100): 0 | pest or weed control at 16 g/ha [4, 13]: 0% | pest or weed control at 31 g/ha [4, 14]: 0% | pest or weed control at 62 g/ha [4, 14]: 0% | pest or weed control at 16 g/ha [4, 15]: 0% | pest or weed control at 31 g/ha [4, 16]: 0% | pest or weed control at 62 g/ha [4, 17]: 10% | Ragweed plant response rating ([5]; postemergence, 0-100 scale): 0 | pest or weed control at 16 g/ha [5, 13]: 0% | pest or weed control at 31 g/ha [5, 14]: 0% | pest or weed control at 62 g/ha [5, 14]: 0% | pest or weed control at 16 g/ha [5, 15]: 0% | pest or weed control at 31 g/ha [5, 16]: 0% | pest or weed control at 62 g/ha [5, 17]: 0% | Ragweed plant response rating ([5]; Preemergence, scale 0 to 100): 0 | Nightshade, E. B. plant response rating ([6]; 8 g ai/ha, scale 0 to 100): 0 | pest or weed control at 16 g/ha ([6]; Solanum, pre-emergence, 16 g ai/ha, scale 0 to 100 (0 no effect, 100 complete control), read-out: Plant response rating, Nightshade, E. B.): 0% | pest or weed control at 31 g/ha ([6]; Solanum, pre-emergence, 31 g ai/ha, 0 to 100 scale, 0 no effect, 100 complete control, read-out: Plant response rating, Nightshade, E. B.): 0% | pest or weed control at 62 g/ha ([6]; Solanum, pre-emergence, 62 g ai/ha, scale 0 to 100, read-out: Plant response rating, Nightshade, E. B.): 0% | Goosegrass plant response rating ([7]; postemergence, 0-100 scale): 0 | pest or weed control at 16 g/ha [7, 13]: 0% | pest or weed control at 31 g/ha [7, 14]: 0% | pest or weed control at 62 g/ha [7, 14]: 20% | pest or weed control at 16 g/ha [7, 15]: 50% | pest or weed control at 31 g/ha [7, 16]: 70% | pest or weed control at 62 g/ha [7, 17]: 95% | Goosegrass plant response rating ([7]; Preemergence, scale 0 to 100): 50 | Kochia plant response rating (kochia (Kochia scoparia); postemergence, 0-100 scale): 0 | Plant response rating, Kochia (kochia (Kochia scoparia); 16 g ai/ha, scale 0 to 100): 0 | Plant response rating, Kochia (kochia (Kochia scoparia); 31 g ai/ha, scale 0 to 100, 0 no effect, 100 complete control): 0 | Plant response rating, Kochia (kochia (Kochia scoparia); 62 g ai/ha, scale 0 to 100, 0 no effect, 100 complete control): 0 | Kochia plant response rating (kochia (Kochia scoparia); Preemergence, scale 0 to 100): 0 | Pigweed plant response rating ([8]; postemergence, 0-100 scale): 0 | pest or weed control at 16 g/ha [8, 13]: 0% | pest or weed control at 31 g/ha [8, 14]: 0% | pest or weed control at 62 g/ha [8, 14]: 0% | pest or weed control at 16 g/ha [8, 15]: 0% | pest or weed control at 31 g/ha [8, 16]: 0% | pest or weed control at 62 g/ha [8, 17]: 0% | Pigweed plant response rating ([8]; Preemergence, scale 0 to 100): 0 | Soybean plant response rating (soybean (Glycine max); postemergence, 0-100 scale): 0 | plant injury at 16 g/ha (soybean (Glycine max); Glycine max, post-emergence, Postemergence, scale 0 to 100, read-out: Plant response rating, Soybean): 0% | plant injury at 62 g/ha (soybean (Glycine max); Glycine max, post-emergence, Postemergence, scale 0 to 100, 0 no effect, 100 complete control, read-out: Plant response rating, Soybean): 0% | plant injury at 16 g/ha (soybean (Glycine max); Glycine max, pre-emergence, Preemergence, scale 0 to 100 (0 no effect, 100 complete control), read-out: Plant response rating, Soybean): 0% | plant injury at 31 g/ha (soybean (Glycine max); Glycine max, pre-emergence, Preemergence, 31 g ai/ha, 0 to 100 scale, 0 no effect, 100 complete control, read-out: Plant response rating, Soybean): 0% | plant injury at 62 g/ha (soybean (Glycine max); Glycine max, pre-emergence, Preemergence, scale 0 to 100, read-out: Plant response rating, Soybean): 0% | Soybean plant response rating (soybean (Glycine max); Preemergence, scale 0 to 100): 0 | Cupgrass, Woolly plant response rating ([9]; postemergence, 0-100 scale): 85 | pest or weed control at 16 g/ha [9, 13]: 95% | pest or weed control at 31 g/ha [9, 14]: 98% | pest or weed control at 62 g/ha [9, 14]: 98% | pest or weed control at 16 g/ha [9, 15]: 70% | pest or weed control at 31 g/ha [9, 16]: 85% | pest or weed control at 62 g/ha [9, 17]: 100% | Cupgrass, Woolly plant response rating ([9]; Preemergence, scale 0 to 100): 20 | Nutsedge, Yellow plant response rating ([10]; postemergence, 0-100 scale): 0 | pest or weed control at 16 g/ha [10, 13]: 0% | pest or weed control at 31 g/ha [10, 14]: 0% | pest or weed control at 62 g/ha [10, 14]: 0% | pest or weed control at 16 g/ha [10, 15]: 0% | pest or weed control at 31 g/ha [10, 16]: 0% | pest or weed control at 62 g/ha [10, 17]: 0% | Nutsedge, Yellow plant response rating ([10]; Preemergence, scale 0 to 100): 0
